Several values for one entry are separate records, joined by “and”; a condition that tells them apart may be missing. Equal entries are not always repeated.
Columns and labels:
[1] = tested on: human bronchial muscle; assay: relaxation of the human bronchial muscle relative to PGE1; format: cell-based; conditions: for relative potency to PGE1: relaxation of human bronchial muscle, PGE1 as standard
Experimental: The compounds prepared as described in Examples I and II, i.e., TR-4681 and TR-4690, were tested to determine their activity in the relaxation of the human bronchial muscle relative to PGE1. […] If potency as a bronchodilator were the only criterion upon which a drug of this type were judged, TR-4690 would be preferred. […] This screen and the results observed in using it to test TR-4681 and TR-4690 are as follows: […]

[2] = tested on: tracheobronchial tract; assay: irritancy to the tracheobronchial tract: 10 minute aerosol challenge in conscious cats; format: in vivo; conditions: for times less potent an irritant than PGE1: computer program of relative potencies on the data of Tables I and II, PGE1 as standard; for %ΔRR = percent change in respiratory rate / Cough: conscious cats, 10 minute aerosol challenge
Experimental: PGE1 and the test compounds were dissolved in absolute ethanol to give stock solutions of 10 mg/ml. These stock solutions and an ethanol vehicle were diluted using isotonic saline adjusted with phosphate buffer to pH 7.2.
Specific pathogen free cats (Category III) of either sex from the Laboratory Animals Centre were used. Conscious cats (2-4 kg) were restrained in an adjustable Perspex box with their heads protruding into a separate Perspex chamber with a seal around the neck. The respiratory pattern and rate of each cat was recorded via a Fleisch head pneumotachograph protruding into the top of the chamber. Sound was recorded by a microphone also protruding into the chamber. An aerosol of 1-8µm particle size was generated by a Monaghan 670 Ultrasonic nebulizer and passed to the cat's face via an opening in the front of the chamber. Each cat was challenged initially for 10 minutes with an aerosol of isotonic saline adjusted with phosphate buffer to pH 7.2 plus the appropriate concentration of ethanol. This control challenge was followed by a 10 minute aerosol challenge of the test compound of PGE1 in the appropriate vehicle. This 10 minute challenge period is much greater than the brief period of inhalation likely to be used in man, but it does produce a larger number of coughs and enables us to determine the potency of the analogue relative to PGE1 in producing other unwanted side effects.
Seven days were left between successive challenges to avoid the development of tolerance. Both drugs were tested in 5 cats using a wide range of concentrations of aerosol stock solutions. Each cat was observed during and up to 24 hours after the experiment for other side effects, e.g., sedation, diarrhea, and salivation.

SMILES	relative potency to PGE1 [1]	times less potent an irritant to the tracheobronchial tract than TR-4690 ([2]; compared with TR-4690)	times less potent an irritant than PGE1 [2]	%ΔRR = percent change in respiratory rate ([2]; Conc 1.0 µg/ml)	Cough ([2]; Conc 1.0 µg/ml)	%ΔRR = percent change in respiratory rate ([2]; Conc 10.0 µg/ml)	Cough ([2]; Conc 10.0 µg/ml)	%ΔRR = percent change in respiratory rate ([2]; Conc 50.0 µg/ml)	Cough ([2]; Conc 50.0 µg/ml)	%ΔRR = percent change in respiratory rate ([2]; Conc 100.0 µg/ml)	Cough ([2]; Conc 100.0 µg/ml)	%ΔRR = percent change in respiratory rate ([2]; Conc 500.0 µg/ml)	Cough ([2]; Conc 500.0 µg/ml)	times more potent than TR-4681 as a bronchodilator ([1]; relaxing human bronchial muscle, compared with TR-4681)	times more potent an irritant than TR-4681 ([2]; compared with TR-4681)
CCC1CC(C)([C@H](O)/C=C/[C@H]2[C@H](O)CC(=O)[C@@H]2CCCCCCC(=O)OC)C1 (stereo partly drawn) [TR-4681, Methyl 11α,15R-dihydroxy-16,18-methano-16-methyl-9-oxoprost-13E-en-l-oate]	1.33	twenty-five times less potent	approximately 50 times	0%	0	+3%	0	+41%	16	+41%	11	+67%	14		
CCCCC[C@H](O)/C=C/[C@H]1[C@H](O)CC(=O)[C@@H]1CCCCCCC(=O)O [PGE1, prostaglandin E1]											33 and 31		58 and 63		
COC(=O)CCCCCC[C@H]1C(=O)C[C@@H](O)[C@@H]1/C=C/[C@@H](O)C1(C)CCC1 [TR-4690, Methyl 16,19-cyclo-11α,15R-dihydroxy-16-methyl-20-nor-9-oxoprost-13E-en-l-oate]	3.9		approximately 2 times	+5%	6	+11%	5	+26%	15	+21%	1	+39%	33	approximately 3 times	approximately 25 times
